Source: US20110112160A1, “TABLET COMPRISING EPROSARTAN MESYLATE” (LEK PHARMACEUTICALS D.D., priority 2008, published 2011)

Assays:
[1] = Physical stability, form of eprosartan mesylate by X-ray diffraction (XRD); assay type: physicochemical; conditions: at ambient temperature and humidity
Experimental: During the dry granulation processes using different excipients from the list above, physical stability of the eprosartan mesylate anhydrate was investigated. […] The final tablet form and placebo powder were analyzed by X-ray diffraction (XRD) pattern to confirm presence of anhydrous form of eprosartan mesylate.
Diffractograms were collected on X'Pert PRO MPD diffractometer using CuKα radiation. Data were recorded from 2 do 40°2θ; in steps of 0.033°2θ; with the integration times 50 s (routine testing) and from 4 do 20°2θ; in steps of 0.033°2θ; with the integration times 2000 s (to achieve lower LOD). The range for measurements with longer integration times was chosen according to the known diffractograms of eprosartan mesylate crystalline forms, which all have characteristic peaks in the carefully measured range between 4 and 20°2theta.

[2] = Hygroscopicity and interconversion of forms at high relative humidity; assay type: physicochemical; conditions: at RH over 60%
Text: Eprosartan mesylate is hygroscopic (at RH over 60%).

intestinal epithelium = conditions: background art; cited from earlier work
[3] = at pH 2; typically; cited from earlier work
[4] = background art; cited from earlier work
Flowability = assay type: physicochemical; conditions: drug per se; with sticking on punches

| physical and chemical stability [1] | hygroscopicity [2] | flowability (Flowability) | Compound | interconversion of form [2] | permeability across the intestinal epithelium (intestinal epithelium) | solubility [3] | bioavailability [4] [%] |
| --- | --- | --- | --- | --- | --- | --- | --- |
| physically and chemically stable | – | – | CCCCc1ncc(/C=C(\Cc2cccs2)C(=O)O)n1Cc1ccc(C(=O)O)cc1.CS(=O)(=O)O [Eprosartan mesylate in anhydrous form] | interconverts to eprosartan mesylate mono- and later to dihydrate | – | – | – |
| – | hygroscopic | below 0.15 g/sec | CCCCc1ncc(/C=C(\Cc2cccs2)C(=O)O)n1Cc1ccc(C(=O)O)cc1.CS(=O)(=O)O [eprosartan mesylate, (E)-α-[2-n-butyl-1-[(4-carboxyphenyl)methyl]-1H-imidazol-5-yl]methylene-2-thiophenepropionic acid monomethanesulfonate] | – | low permeability | less than 0.1 mg/ml | 13 |
